The text below walks through data of patent US4269827A, “Process and composition for reducing blood pressure” (The Massachusetts General Hospital, priority 1980, dated 1981).

Several values for one entry are separate records, joined by “and”; a condition that tells them apart may be missing. Equal entries are not always repeated. Where two headings read alike, the source gives them in different places. No end group written: not given here.

Experiment [1] addresses T1, renin (Homo sapiens, UniProt P00797).
T1 sequence (P00797 67-406): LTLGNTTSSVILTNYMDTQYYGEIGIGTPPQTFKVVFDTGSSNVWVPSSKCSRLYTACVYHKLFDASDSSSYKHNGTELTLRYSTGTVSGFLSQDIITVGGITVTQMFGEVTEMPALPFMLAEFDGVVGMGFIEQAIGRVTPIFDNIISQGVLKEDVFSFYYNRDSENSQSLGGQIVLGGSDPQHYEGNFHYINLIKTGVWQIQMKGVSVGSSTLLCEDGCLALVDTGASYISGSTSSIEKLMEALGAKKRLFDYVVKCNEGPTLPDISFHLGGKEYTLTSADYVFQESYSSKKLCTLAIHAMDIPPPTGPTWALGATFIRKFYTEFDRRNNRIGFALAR
The note with it: octapeptides with changed cleavage site; read-out: binding constants; cited from earlier work.

The target of a further experiment is T2, plasma renin activity (Homo sapiens, UniProt P00797).
T2 construct: added to pooled human plasma having a plasma renin activity; from tissue; host or cells: pooled human plasma
T2 sequence (P00797 67-406): T1 sequence (P00797 67-406)
Nature of the experiment: In vitro inhibition of plasma renin activity in pooled human plasma. It is filed as biochemical. The conditions noted are these: peptide in saline (1 mM) added to pooled human plasma; read-out: 50% inhibition of plasma renin activity (converted). As for the experimental part:
The mixture is incubated for 45 min at 37° and then cooled to 0°. Complementary amounts of plasma are then added as 20 μl of a plasma dilution in 0.1 M Tris HCl (pH 7.5) containing 0.5% albumin to give the same amount of plasma protein in all tubes. Tracer and antibody (1000 μl) are then added following the radioimmunoassay procedure described by Poulsen et al, J. Clin. Endocrinol. Metab. 39, 816, (1974). Data for the standard curve is collected in the same medium kept at 4°. To determine Ki parallel series of experiments are performed in which the 10 μl Tris buffer is replaced with 10 μl of a solution containing between 2-100 μM inhibitor, respectively.
The inhibitory effect of the decapeptide in human plasma was determined as follows: human blood was drawn in ice cold tubes containing EDTA as anticoagulent and the plasma was immediately separated at 4° C. […] Substrate concentration was determined by measuring angiotensin I concentration by radioimmunoassay after incubation of plasma diluted 1:10 in the phosphate albumin buffer (pH 7.4) with 10 µl of human renin solution (0.006 GU/ml) for 1, 2, 3 and 4 hrs in order to convert renin substrate completely to angiotensin I. EDTA, BAL (2,3-dimercapto-1-propanol) and 8-hydroxyquinoline were added as angiotensinase inhibitors, Haber et al, J. Clin. Endocrinol. […]

Experiment [2] has as its target T1, renin. Nature of the experiment: In vitro inhibition of renin, inhibitor constant (Ki) with tetradecapeptide substrate, angiotensin I radioimmunoassay. The conditions noted are these: pH 7.4, read-out: inhibitory constant (Ki). It is filed as biochemical.
Method: The peptide being tested is dissolved in 0.01 N HCl and the pH adjusted to pH 7.5 to obtain high concentrations of peptide. The peptide solution is diluted further to appropriate concentrations with 0.1 M Tris HCL-albumin.
First, to determine Km renin (0.006 Goldblatt unit/ml) is incubated for 2 hrs. at 37° with incremental concentrations of Tetradecapeptide substrate varying between 3 and 108 μM in a volume of 160 μl at pH 7.5 in 0.1 M Tris HCl containing 0.5% albumin. The release of angiotensin I is determined by radioimmunoassay, Haber et al., J. Clin. Endocrinol. […] The cross-reaction of the tetradecapeptide with antibody is about 1% and less than 0.5% with the renin inhibitors both before and after exposure to renin.
The inhibitor constant is calculated as previously described, Poulsen et al., Scand. […] No. 132, 1, (1973), from a weighted least-squares fit of a Lineweaver-Burk plot. Each point is given a weight proportional to the initial velocity, Dowd et al, J. Biol. Chem. 240, 863, (1965).
The tetradecapeptide is a renin substrate releasing angiotensin I after cleavage between leucyl residues at positions 10 and 11.
Specific antibody is used to measure angiotensin I release from the decapeptide.
The rate of cleavage between renin and decapeptide will therefore be given by Dixon and Webb, Enzymes, New York, N.Y., Academic (1964), [formula] […]

With Leu-Phe, the Ki on renin [1] was 4 µM.
Consider Leu-Tyr, for which the Ki on renin [1] is 12 µM.
As to “PHPFHFFVYK [I, Pro-His-Pro-Phe-His-Phe-Phe-Val-Tyr-Lys]”, the IC50 at plasma renin activity is 45 µM and 44.7 µM. Also, the Ki at renin [2] is 2 µM.
As to Phe-Phe, the Ki at renin [1] was 1 µM.
